Measured values as given in patent US12540120B2, “Herbicidal compounds” (SYNGENTA CROP PROTECTION AG, priority 2019, dated 2026).

Columns and labels:
Type in all cases: in vivo
[1] = test system: Solanum nigrum (SOLNI); experiment: B5 Pre-Emergence Efficacy—Test 2; settings: 250 g/ha, evaluated after 13 days
Method: (§1) B5 Pre-Emergence Efficacy—Test 2 Seeds of a variety of test species were sown in standard soil in pots: Solanum nigrum (SOLNI), Amaranthus retoflexus (AMARE), Setaria faberi (SETFA), Echinochloa crus-galli (ECHCG), Ipomoea hederacea (IPOHE), Lolium perenne (LOLPE). After cultivation for one day (pre-emergence) under controlled conditions in a glasshouse (at 24/16° C., day/night; 14 hours light; 65% humidity), the plants were sprayed with an aqueous spray solution derived from the formulation of the technical active ingredient in acetone/water (50:50) solution containing 0.5% Tween 20 (polyoxyethelyene sorbitan monolaurate, CAS RN 9005-64-5). Compounds are applied at 250 g/ha. The test plants were then grown in a glasshouse under controlled conditions (at 24/16° C., day/night; 14 hours light; 65% humidity) and watered twice daily. After 13 days, the test is evaluated for the percentage damage caused to the plant. The biological activities are assessed on a five point scale (5=80-100%; 4=60-79%; 3=40-59%; 2=20-39%; 1=0-19%). A blank value in the table is indicative that the compound was not tested on that species.

[2] = test system: Amaranthus retoflexus (AMARE); experiment: B5 Pre-Emergence Efficacy—Test 2; settings: 250 g/ha, evaluated after 13 days
Method: as §1

[3] = test system: Lolium perenne (LOLPE); experiment: B2 Post-Emergence Efficacy—Test 2; settings: post-emergence application, 250 g/ha, evaluated after 13 days (Test 2)
Method: (§2) B2 Post-Emergence Efficacy—Test 2 Seeds of a variety of test species are sown in standard soil in pots:—Solanum nigrum (SOLNI), Amaranthus retoflexus (AMARE), Setaria faberi (SETFA), Echinochloa crus-galli (ECHCG), Ipomoea hederacea (IPOHE), Lolium perenne (LOLPE). After 8 days cultivation (post-emergence) under controlled conditions in a glasshouse (at 24/16° C., day/night; 14 hours light; 65% humidity), the plants are sprayed with an aqueous spray solution derived from the formulation of the technical active ingredient in acetone/water (50:50) solution containing 0.5% Tween 20 (polyoxyethylene sorbitan monolaurate, CAS RN 9005-64-5). Compounds are applied at 250 g/ha. The test plants are then grown in a glasshouse under controlled conditions in a glasshouse (at 24/16° C., day/night; 14 hours light; 65% humidity) and watered twice daily. After 13 days, the test is evaluated for the percentage damage caused to the plant. The biological activities are assessed on a five point scale (5=80-100%; 4=60-79%; 3=40-59%; 2=20-39%; 1=0-19%). A blank value in the table is indicative that the compound was not tested on that species.

[4] = test system: Echinochloa crus-galli (ECHCG); experiment: B2 Post-Emergence Efficacy—Test 2; settings: post-emergence application, 250 g/ha, evaluated after 13 days (Test 2)
Method: as §2

[5] = test system: Solanum nigrum (SOLNI); experiment: B2 Post-Emergence Efficacy—Test 2; settings: post-emergence application, 250 g/ha, evaluated after 13 days (Test 2)
Method: as §2

[6] = test system: Amaranthus retoflexus (AMARE); experiment: B2 Post-Emergence Efficacy—Test 2; settings: post-emergence application, 250 g/ha, evaluated after 13 days (Test 2)
Method: as §2

[7] = test system: Ipomoea hederacea (IPOHE); experiment: B2 Post-Emergence Efficacy—Test 2; settings: post-emergence application, 250 g/ha, evaluated after 13 days (Test 2)
Method: as §2

[8] = test system: Setaria faberi (SETFA); experiment: B2 Post-Emergence Efficacy—Test 2; settings: post-emergence application, 250 g/ha, evaluated after 13 days (Test 2)
Method: as §2

[9] = test system: Lolium perenne (LOLPE); experiment: B5 Pre-Emergence Efficacy—Test 2; parameters: key: 5-point scale: 5=80-100%, 4=60-79%, 3=40-59%, 2=20-39%, 1=0-19% damage; settings: 250 g/ha, evaluated after 13 days
Method: as §1

[10] = test system: Echinochloa crus-galli (ECHCG); experiment: B5 Pre-Emergence Efficacy—Test 2; parameters: key: 5-point scale: 5=80-100%, 4=60-79%, 3=40-59%, 2=20-39%, 1=0-19% damage; settings: 250 g/ha, evaluated after 13 days
Method: as §1

[11] = test system: Ipomoea hederacea (IPOHE); experiment: B5 Pre-Emergence Efficacy—Test 2; parameters: key: 5-point scale: 5=80-100%, 4=60-79%, 3=40-59%, 2=20-39%, 1=0-19% damage; settings: 250 g/ha, evaluated after 13 days
Method: as §1

[12] = test system: Setaria faberi (SETFA); experiment: B5 Pre-Emergence Efficacy—Test 2; parameters: key: 5-point scale: 5=80-100%, 4=60-79%, 3=40-59%, 2=20-39%, 1=0-19% damage; settings: 250 g/ha, evaluated after 13 days
Method: as §1

SMILES	Control of weed species after pre-emergence application, SOLNI (percentage damage, five point scale) [1]	Control of weed species after pre-emergence application, AMARE (percentage damage, five point scale) [2]	percentage damage caused to the plant, five point scale, LOLPE [3]	percentage damage caused to the plant, five point scale, ECHCG [4]	percentage damage caused to the plant, five point scale, SOLNI [5]	percentage damage caused to the plant, five point scale, AMARE [6]	percentage damage caused to the plant, five point scale, IPOHE [7]	percentage damage caused to the plant, five point scale, SETFA [8]	Control of weed species after pre-emergence application, LOLPE (percentage damage, five point scale) [9]	Control of weed species after pre-emergence application, ECHCG (percentage damage, five point scale) [10]	Control of weed species after pre-emergence application, IPOHE (percentage damage, five point scale) [11]	Control of weed species after pre-emergence application, SETFA (percentage damage, five point scale) [12]
CCN(C)C(=O)c1ccc(CCc2c(Cl)ccc(F)c2-c2c(OC(=O)C(C)C)c(C)nn(C)c2=O)cc1F [Compound A-3.028, [5-[3-Chloro-2-[2-[4-[ethyl(methyl)carbamoyl]-3-fluoro-phenyl]ethyl]-6-fluoro-phenyl]-1,3-dimethyl-6-oxo-pyridazin-4-yl] 2-methylpropanoate]	5 (5=80-100%)	5 (5=80-100%)	5 (5=80-100%)	5 (5=80-100%)	5 (5=80-100%)	4 (4=60-79%)	5 (5=80-100%)	4 (4=60-79%)	5 (5=80-100%)	5 (5=80-100%)	5 (5=80-100%)	5 (5=80-100%)
Cc1nn(C)c(=O)c(-c2c(F)ccc(Cl)c2CCc2ccc(C3CC3)cc2)c1OC(=O)C(C)C [Compound A-3.038]	5 (5=80-100%)	5 (5=80-100%)	5 (5=80-100%)	2 (2=20-39%)	5 (5=80-100%)	5 (5=80-100%)	5 (5=80-100%)	5 (5=80-100%)	5 (5=80-100%)	2 (2=20-39%)	5 (5=80-100%)	1 (1=0-19%)
Cc1nn(C)c(=O)c(-c2c(F)ccc(Cl)c2CCc2ccc(C3CC3)cc2)c1O [Compound A-1.038]	5 (5=80-100%)	5 (5=80-100%)	5 (5=80-100%)	5 (5=80-100%)	5 (5=80-100%)	5 (5=80-100%)	5 (5=80-100%)	5 (5=80-100%)	5 (5=80-100%)	5 (5=80-100%)	2 (2=20-39%)	0
Cc1nn(C)c(=O)c(-c2c(F)ccc(Cl)c2/C=C/c2ccc(OC(C)(C)C)cc2)c1OC(=O)C(C)C [Compound A-4.035]	0	0	0	0	3 (3=40-59%)	1 (1=0-19%)	3 (3=40-59%)	0	1 (1=0-19%)	1 (1=0-19%)	1 (1=0-19%)	0
Cc1nn(C)c(=O)c(-c2c(F)ccc(Cl)c2CCc2ccc(N(C)C)cc2)c1O [Compound A-1.033]	1 (1=0-19%)	1 (1=0-19%)	5 (5=80-100%)	4 (4=60-79%)	5 (5=80-100%)	5 (5=80-100%)	5 (5=80-100%)	5 (5=80-100%)	1 (1=0-19%)	0	1 (1=0-19%)	2 (2=20-39%)
CNc1ccc(CCc2c(Cl)ccc(F)c2-c2c(O)c(C)nn(C)c2=O)cc1 [Compound A-1.034]	2 (2=20-39%)	0	5 (5=80-100%)	1 (1=0-19%)	5 (5=80-100%)	5 (5=80-100%)	5 (5=80-100%)	5 (5=80-100%)	0	0	0	0
Cc1nn(C)c(=O)c(-c2c(F)ccc(Cl)c2CCc2ccc(OC(C)(C)C)cc2)c1OC(=O)C(C)C [Compound A-3.035]	5 (5=80-100%)	4 (4=60-79%)	5 (5=80-100%)	4 (4=60-79%)	5 (5=80-100%)	5 (5=80-100%)	5 (5=80-100%)	5 (5=80-100%)	5 (5=80-100%)	4 (4=60-79%)	5 (5=80-100%)	5 (5=80-100%)
Cc1nn(C)c(=O)c(-c2c(F)ccc(Cl)c2CCc2ccccc2C#N)c1O [Compound A-1.029]	5 (5=80-100%)	3 (3=40-59%)	4 (4=60-79%)	2 (2=20-39%)	5 (5=80-100%)	4 (4=60-79%)	5 (5=80-100%)	4 (4=60-79%)	2 (2=20-39%)	5 (5=80-100%)	1 (1=0-19%)	1 (1=0-19%)
